Data: patent US20230168203A9, “Pyrogallarene Chelating and Sequestering Agents” (Kinsey Spiel, priority 2018, published 2023)
Like-named read-outs stand apart in the source and are kept apart here.

How the values were obtained:
[1] = Solid state contact of nearly dry pyrogallarenes with stainless steel spatula; conditions: freshly-synthesized
Description: Pyrogallarenes, including C-methyl Pyrogallol[4]arene, C-ethyl Pyrogallol[4]arene, and C-propyl pyrogallol[4]arene, have a high affinity for metals, even in a homogeneous solid state reaction. For example, a stainless steel spatula in contact with these freshly-synthesized and not completely dry (nearly dry) pyrogallarenes results in a color shift from white to blue where the spatula came in contact with the pyrogallol[4]arene. This example may illustrate, as in previous examples, that a chelation reaction has occurred.

[2] = Example B: precipitate formation of C-ethyl pyrogallarene colloid (from saturated methanol) after adding metal chlorides
Description: Some metals required more time for a precipitate to form.

[3] = Example C: C-ethyl pyrogallol[4]arene colloid (from acetone stock) after adding chloride salts
Description: Upon dispensing this aliquot the aqueous solutions were colorless white colloids. Various chloride salts were added to the solution including […], Tungsten(IV) chloride, Strontium chloride, Titanium chloride, Zirconyl (IV) chloride octahydrate, Aluminum chloride, and Hafnium chloride. All metal salts were colorless except Tungsten(IV) chloride, which was light green, and Titanium chloride, which was a yellow solution. […] All other colloids appeared unchanged immediately after the addition of the metal. This may be a result of no chelation or slow reaction kinetics for the chelated complex. Finally, one additional salt, colorless Gadolinium Chloride, was tested. […] As stated previously, various examples may indicate chelation and sequestration by pyrogallarenes on a PPM level, owing to the solubility of various chloride salts. For example, PbCl2 is very poorly soluble in water.

[4] = Description: A stock solution of was made of 100 mg of purified C-ethyl pyrogallol[4]arene dissolved in 20 mL of acetone. 1 mL aliquots of this stock solution were dispensed into vials containing 20 mL of water. Sample one contained TDS of 330, Ca of 30 ppm, Mg of 26 ppm, K of 1 ppm, Si of 15 ppm, bicarbonate of 360 ppm, Pb of <0.001, and a pH of 7.2. Sample two contained TDS of 222, Ca of 18 ppm, Mg of 15 ppm, K of 5.3 ppm, Si of 93 ppm, bicarbonate of 152 ppm, and a pH of 7.7. Sample three contained TDS of 44, Ca of 5 ppm, Mg of 1 ppm, K of 0 ppm, bicarbonate of 20 ppm, and a pH of 7.8.
[5] = Heterogeneous chelation: solid pyrogallol[4]arene dispensed into unpurified aqueous solution
Remark: listed apart in the source
[6] = Example A: colour of C-propyl pyrogallol[4]arene colloid in deionized water after adding metal chloride salts (chelation indicator)
Description: A stock solution of was made of 400 mg of purified C-propyl pyrogallol[4]arene dissolved in 20 mL of acetone. […] Upon dispensing this aliquot the aqueous solutions were a colorless white colloid. The colloid appeared to be somewhat translucent. Upon dispensing NaCl into one colorless colloid the color was unchanged. Then various chloride salts of metals were added to colorless C-propyl pyrogallol[4]arene colloids. Upon adding ZnCl2 the colloid turned light brown. Upon adding MgCl2 the colloid turned pink. Upon adding Fe(III)Cl3 the colloid turned grey. Upon adding Cu(I)Cl the colloid turned brown. Upon adding CaCl2 the colloid turned pink. Upon adding Cr(III)Cl3 the colloid turned green. Upon adding BaCl2.2H2O the colloid turned pink. Upon adding MnCl2 the colloid turned salmon. Upon adding NiCl2 the colloid turned salmon.
In Example A, half of the metal salts, ZnCl2, MgCl2, CaCl2, and BaClz.2H2O, were colorless in their solid form, before adding them to the colloid. Pyrogallarene chelation is evident as a colorless salts are added to a colorless colloid and varying colors result. Five of the salts were colored in their solid form. […] Although Fe(III)Cl3 was brownish red in its solid form the resulting colloid solution was grey. Cu(I)Cl was green in its solid form but the resulting colloid solution was brown. NiCl2 was green in its solid form but the resulting colloid solution was pink.

[7] = Resilience of chelated precipitate at high temperature; assay type: physicochemical
Description: Unlike some solids where solubility increases rapidly with increasing temperature the pyrogallarene chelated precipitate is resilient at high temperature. […] A chelate made from C-propyl pyrogallol[4]arene and a variety of metals is also undissolved at 80° C. […] However, heterogeneous pyrogallol[4]arene chelation complexes appear to dissolve minimally into aqueous solutions, limited by a low Ksp as discussed above.

In the case of `CC1c2cc(c(O)c(O)c2O)C(C)c2cc(c(O)c(O)c2O)C(C)c2cc(c(O)c(O)c2O)C(C)c2cc1c(O)c(O)c2O` (centres unmarked) [C-methyl Pyrogallol[4]arene], the “color shift where spatula came in contact” value [1] is reported as “white to blue”.
With `CCC1c2cc(c(O)c(O)c2O)C(CC)c2cc(c(O)c(O)c2O)C(CC)c2cc(c(O)c(O)c2O)C(CC)c2cc1c(O)c(O)c2O` (centres unmarked) [C-ethyl pyrogallol[4]arene] the precipitate formed ([2]; BaClz.2H2O, 24 hours later) was “white precipitate”, the precipitate formed ([2]; CaCl2 added, immediately) was “blue precipitate” and the precipitate formed ([2]; Cr(III)Cl3, 24 hours later) was “white precipitate”. The precipitate formed ([2]; Cu(I)Cl, 24 hours later) was “grey precipitate”, the precipitate formed ([2]; NiClz, 24 hours later) was “white precipitate” and the precipitate formed ([2]; PbCl2 added, immediately) was “blue precipitate”. For the same molecule, the precipitate formed ([2]; ZnCl2 added, immediately) was “blue precipitate”, the observation on colloid ([3]; Aluminum chloride added, immediately after addition) was “unchanged” and the observation on colloid ([3]; Gadolinium Chloride added) was “purple precipitate”. The observation on colloid ([3]; Hafnium chloride added) was “grey precipitate”, the observation on colloid ([3]; Strontium chloride added) was “white precipitate” and the observation on colloid ([3]; Titanium chloride added, immediately after addition) was “unchanged”. The observation on colloid ([3]; Tungsten(IV) chloride added, immediately after addition) was “unchanged”, the observation on colloid ([3]; Yttrium(II) chloride hydrate added) was “purple precipitate” and the observation on colloid ([3]; Zirconyl (IV) chloride octahydrate added) was “clear grey solution”. The “observation on water sample” value ([4]; Sample four: pH 9.4) was “pink colored solution”, the “observation on water sample” value ([4]; Sample one: TDS 330, Ca 30 ppm, Mg 26 ppm, pH 7.2) was “dense blue precipitate” and the “observation on water sample” value ([4]; Sample three: TDS 44, Ca 5 ppm, Mg 1 ppm, pH 7.8, several days) was “did not produce a precipitate”. For the same molecule, the “observation on water sample” value ([4]; Sample two: TDS 222, Ca 18 ppm, Mg 15 ppm, pH 7.7, over a few minutes) was “diffuse blue precipitate”, the “color shift where spatula came in contact” value [1] was “white to blue” and the dissolution of solid ([5]; solid in unpurified aqueous solution) was “almost completely undissolved”. The “shift of absorbance colour of solid” value ([5]; solid, colorless compound in unpurified aqueous solution) was “blue” and the solubility in water was “mostly insoluble”.
For `CCCC1c2cc(c(O)c(O)c2O)C(CCC)c2cc(c(O)c(O)c2O)C(CCC)c2cc(c(O)c(O)c2O)C(CCC)c2cc1c(O)c(O)c2O` (centres unmarked) [C-propyl pyrogallol[4]arene], the colour of colloid ([6]; BaCl2.2H2O added) was “pink”, the colour of colloid ([6]; CaCl2 added) was “pink” and the colour of colloid ([6]; Cr(III)Cl3 added) was “green”. For the same molecule, the colour of colloid ([6]; Cu(I)Cl added) was “brown”, the colour of colloid ([6]; Fe(III)Cl3 added) was “grey” and the colour of colloid ([6]; MgCl2 added) was “pink”. For the same molecule, the colour of colloid ([6]; MnCl2 added) was “salmon”, the colour of colloid ([6]; NaCl added) was “unchanged” and the colour of colloid ([6]; NiCl2 added) was “salmon”. The colour of colloid ([6]; ZnCl2 added) was “light brown”, the “color shift where spatula came in contact” value [1] was “white to blue” and the stability of chelate ([7]; chelate with PbCl2, 80° C) was “stable and undissolved”. The stability of chelate ([7]; chelate with a variety of metals, 80° C) was “undissolved” and the solubility in water was “only slightly soluble”.
